# Assay results reported in patent US20240279710A1, “FLUORESCENT PROBES” (TOHOKU TECHNO ARCH CO., LTD., priority 2021, published 2024).
# Key:
# calpain = assay: Combined use with calpain inhibitor in rat NMDA model (Compound 19 as probe); assay type: in vivo
# Procedure: (§1) Carboxymethylcellulose sodium was dissolved in distilled water to prepare a 0.5% (w/v) CMC solution. An inhibitor-containing CMC solution was prepared by suspending SNJ-1945 in the 0.5% (w/v) CMC solution so that its concentration became 2.5% (w/v). Rats were each subjected to general anesthesia with isoflurane, and NMDA (10 mM, 2 μL) was administered into an eye of the rat. 2 Hours after the administration of NMDA, the inhibitor-containing CMC solution was intraperitoneally administered to the rat so that the dose of SNJ-1945 became 100 mg/kg body weight. 4 Hours after the administration of the inhibitor (6 hours after the administration of NMDA), the rat was anesthetized with isoflurane again, and Compound 19 (15 μM, 4 μL) was administered into the eye. Images of an ocular fundus were taken with F-10 20 minutes to 30 minutes after the administration of Compound 19. In a control group (N=8), the same operations as those in an SNJ-1945-administered group (N=8) except the following were performed: the 0.5% (w/v) CMC solution was administered instead of the inhibitor-containing CMC solution.
# as §1, with “orally” for “intraperitoneally”, “(N=7),” for “(N=8),”
# Carboxymethylcellulose sodium was dissolved in distilled water to prepare a 0.5% (w/v) CMC solution. An inhibitor-containing CMC solution was prepared by suspending SNJ-1945 in the 0.5% (w/v) CMC solution so that its concentration became 2.5% (w/v). The inhibitor-containing CMC solution was intraperitoneally administered to each of rats so that the dose of SNJ-1945 became 100 mg/kg body weight. 2 Hours after the intraperitoneal administration, the rat was subjected to general anesthesia with isoflurane, and NMDA (10 mM, 2 μL) was administered into an eye thereof. […]
# SH-SY5Y cells = assay: Combined use with calpain inhibitor in live cell imaging; assay type: cell-based; conditions: inhibitor 10 μM, 5 μM Compound 19, SH-SY5Y cells; FIG. 30
# Procedure: Whether or not the improvement in enzymatic reactivity between the compound of the present invention and a calpain confirmed by the above-mentioned experiment remained the same even in a cell was verified. Calpain activity imaging in SH-SY5Y cells was performed on each of Compounds 16 and 19. Specifically, the SH-SY5Y cells (American Type Culture Collection, VA, USA) were cultured in a mixed medium of Dulbecco's modified eagle medium and Ham's F-12 medium (DMEM/F-12; Thermo Fisher Scientific, Inc.) (containing 10% fetal bovine serum (FBS; Thermo Fisher Scientific, Inc., MA, USA) and 100 U/mL penicillin-100 μg/mL streptomycin (PS; Thermo Fisher Scientific, Inc.)) under the conditions of 37° C. and 5% CO2-95% air. 6×10^4 to 8×10^4 Cells/well of the cells were seeded in a multiwell plate (μ-Plate 96 Well; ibidi, Grafelfing, Germany) coated with poly-D-lysine (Thermo Fisher Scientific, Inc.) and laminin (BD Biosciences, CA, USA), and were preincubated in a culture solution. Immediately after the removal of the culture solution in the wells, 200 μL of an assay solution (a culture solution containing a 5 μM probe) was added thereto, and the cells were incubated under the conditions of 37° C. and 5% CO2-95% air. 10 Minutes after that, a bright field image and a fluorescence image were taken with a confocal microscope (LSM 710, Carl Zeiss AG, Oberkochen, Germany). […]
smiles,measurement,setting,value
COCCOCCOC(=O)N[C@@H](CC(C)C)C(=O)N[C@@H](Cc1ccccc1)C(=O)C(=O)NC1CC1 [SNJ-1945],number of HMRG-positive nerve cells compared to control group,"calpain; 100 mg/kg intraperitoneally 2 hours after NMDA, Compound 19 (15 μM, 4 μL) 4 hours later, FIG. 32",significantly reduced
same,number of HMRG-positive nerve cells compared to control group,"calpain; 100 mg/kg intraperitoneally 2 hours before NMDA, Compound 19 (15 μM, 4 μL) 6 hours after NMDA, FIG. 34",significantly reduced
same,number of HMRG-positive nerve cells compared to control group,"calpain; 100 mg/kg orally 2 hours after NMDA, Compound 19 (15 μM, 4 μL) 4 hours later, FIG. 33",significantly reduced
same,"number of HMRG-positive nerve cells compared to group administered any other calpain inhibitor (C2I, MDL 28,170, PD-151746)","calpain; orally as in Example 16, FIG. 35",significantly reduced
same,intracellular fluorescence intensity (Compound 19 probe) with vs without inhibitor,SH-SY5Y cells,attenuates
